Ki data for 1 molecule are collected here from ChEMBL document CHEMBL5727660, “Compounds for the treatment of pain” (2020).

The target of this assay is Mu-type opioid receptor (Homo sapiens, UniProt P35372). As to the kind of experiment: Competitive Displacement Assay: Membrane protein from CHO (Chinese Hamster Ovarian) cells that stably expressed one type of the cloned human opioid receptor were incubated with 12 different concentrations of the compound in the presence of 0.25 nM [3H]DAMGO, 0.2 nM [3H]naltrindole or 1 nM [3H]U69,593 in a final volume of 1 mL of 50 mM Tris-HCl, pH 7.5 at 25° C. Incubation times of 60 min were used for [3H]DAMGO and [3H]U69,593. Because of a slower association of [3H]naltrindole with the receptor, a 3 h incubation was used with this radioligand. Samples incubated with [3H]naltrindole also contained 10 mM MgCl2 and 0.5 mM phenylmethylsulfonyl fluoride. Nonspecific binding was measured by inclusion of 10 μM naloxone. The binding was terminated by filtering the samples through Schleicher & Schuell No. 32 glass fiber filters using a Brandel 48-well cell harvester. The filters were subsequently washed three times with 3 mL of cold 50 mM Tris-HCl, pH 7.5, and were counted in 2 mL Ecoscint A scintillation fluid. For [3H]naltrindole and [3H]U69,593 binding, the filters were soaked in 0.1% polyethylenimine for at least 60 min before use.

SMILES strings stand for the structures.

Mu-type opioid receptor, sequence (P35372 whole entry): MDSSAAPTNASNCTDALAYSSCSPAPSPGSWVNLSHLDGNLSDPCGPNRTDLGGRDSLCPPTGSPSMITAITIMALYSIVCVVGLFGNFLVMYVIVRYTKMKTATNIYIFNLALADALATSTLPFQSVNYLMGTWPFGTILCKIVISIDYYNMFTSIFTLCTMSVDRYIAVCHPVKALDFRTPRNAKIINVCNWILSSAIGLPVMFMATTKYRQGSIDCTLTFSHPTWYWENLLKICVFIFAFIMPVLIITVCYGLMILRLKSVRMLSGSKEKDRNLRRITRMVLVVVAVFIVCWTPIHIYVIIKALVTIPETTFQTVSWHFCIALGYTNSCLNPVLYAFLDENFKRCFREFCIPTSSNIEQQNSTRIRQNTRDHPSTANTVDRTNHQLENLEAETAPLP

Regarding `COC1(c2ccnc(C(N)=O)c2)C2CCCC1CN(Cc1cc3ccccc3[nH]1)C2` (stereo unspecified), the Ki was less than 1 nM.

A word on the Ki: it is the dissociation constant of the complex between target and ligand, obtained from inhibition or displacement.
